“And” between values parts separate entries of the source, which are not always exact repeats. Equal values may be shown once.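 A five-concentration, 48-hour dose response in 96-well plates underlies each endpoint, interpolated linearly between surrounding concentrations. Here, GI50 denotes the concentration required for 50% inhibition of growth. TGI marks complete inhibition of growth.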
Assays:
Experiment in all cases: NCI-60 cell line screen, 48 h
[1] = tested on: 786-0 renal
[2] = tested on: SK-OV-3 ovarian
[3] = tested on: SK-MEL-5 melanoma
[4] = tested on: BT-549 breast
[5] = tested on: TK-10 renal
[6] = tested on: DU-145 prostate
[7] = tested on: UO-31 renal
[8] = tested on: KM12 colon
[9] = tested on: OVCAR-3 ovarian
[10] = tested on: SR leukemia

## CCN(CC)CCN1c2nc3ccccc3cc2Sc2cc3ccccc3nc21
[1]
  GI50: 2.17 µM
  TGI: 4.64 µM
[2]
  GI50: 3.5 µM
  TGI: 12.9 µM
[3]
  GI50: 1.36 µM
  TGI: 2.69 µM
[4]
  GI50: 2.83 µM
  TGI: 12.2 µM
[5]
  GI50: 3.54 µM
  TGI: 8.74 µM
[6]
  GI50: 3.59 µM
  TGI: 11.3 µM
[7]
  GI50: 0.97 µM
  TGI: 5.09 µM
[8]
  GI50: 2.01 µM
  TGI: 5 µM
[9]
  GI50: 1.85 µM
  TGI: 4.9 µM

## CCCCCCCCCCCCN=C(N)c1ccc(N2CCN(c3ccc(C(N)=NCCCCCCCCCCCC)cc3)CC2)cc1
[1]
  GI50: 6.23 µM
  TGI: 15.6 µM
[2]
  GI50: 19.5 µM
  TGI: 34.1 µM
[3]
  GI50: 10.5 µM
  TGI: 21.1 µM
[5]
  GI50: 13.2 µM
  TGI: > 50 µM
[6]
  GI50: 3.57 µM
  TGI: 14.3 µM
[7]
  GI50: 22.6 µM
  TGI: > 50 µM
[8]
  GI50: 11.7 µM
  TGI: 25.1 µM
[9]
  GI50: 8.66 µM
  TGI: 20.7 µM
[10]
  GI50: 3.8 µM
  TGI: > 50 µM

## N#C/C(=C1\OC(=N)C(c2ccccc2)C1=O)c1ccccc1 (stereo unspecified)
[1]
  TGI: > 56.8 µM
[2]
  TGI: > 100 µM
[3]
  TGI: > 64.2 µM
[5]
  TGI: 68.5 µM
[7]
  TGI: 42.8 µM
[8]
  TGI: > 100 µM
[9]
  TGI: > 67.7 µM

## CCCCCCCCCCCCCCCC(=O)OCCOCCOCCOCCOCCOC(=O)CCCCCCCCCCCCCCC
[1]
  TGI: > 100 µM
[2]
  TGI: > 100 µM
[3]
  TGI: > 100 µM
[5]
  TGI: > 100 µM
[7]
  TGI: > 100 µM
[8]
  TGI: > 100 µM
[9]
  TGI: > 100 µM
[10]
  TGI: > 100 µM

## CCOC(=O)c1c(C)nc2c(c1N)/C(=C/c1ccccn1)C(=O)N2Cc1ccccc1
[1]
  GI50: 0.867 µM
  TGI: 1.68 µM
[2]
  GI50: 3.08 µM
  TGI: > 50 µM
[3]
  GI50: 0.95 µM
  TGI: 1.92 µM
[4]
  GI50: 1.11 µM
  TGI: 3.09 µM
[5]
  GI50: 1.51 µM
  TGI: > 50 µM
[7]
  GI50: 0.691 µM
  TGI: 1.37 µM
[8]
  GI50: 1.15 µM
  TGI: 2.85 µM
[9]
  GI50: 0.9 µM
  TGI: 1.71 µM
[10]
  GI50: 1.37 µM
  TGI: > 50 µM

## O=C(CC1C(=O)Nc2ccccc2S1(=O)=O)Nc1ccc(Cl)cc1 (stereo unspecified)
[1]
  TGI: 38.7 µM
[3]
  TGI: 59.1 µM
[5]
  TGI: 54.5 µM
[7]
  TGI: 66.9 µM
[9]
  TGI: 39.4 µM
[10]
  TGI: 30.1 µM

## COc1ccc2c(c1)/C(=C\c1c(-c3cc(OC)ccc3OC)nc3sccn13)C(=O)N2
[1]
  GI50: 0.561 µM
  TGI: 1.78 µM
[2]
  GI50: 9.29 µM
  TGI: 24.6 µM
[4]
  GI50: 4.67 µM
[5]
  GI50: 1.76 µM
  TGI: 3.14 µM
[7]
  GI50: 1.57 µM
  TGI: 3.02 µM
[8]
  GI50: 2 µM
  TGI: 3.98 µM
[9]
  GI50: 6.38 µM and 3.51 µM
  TGI: 14.3 µM

## C/C=C/C(=O)[O-].C/C=C/C(=O)[O-].N.N.N.N.[Co+3].[O-][Cl+3]([O-])([O-])[O-]
[1]
  GI50: > 100 µM
  TGI: > 100 µM
[2]
  GI50: > 100 µM
  TGI: > 100 µM
[3]
  GI50: > 100 µM
  TGI: > 100 µM
[5]
  GI50: > 100 µM
  TGI: > 100 µM
[7]
  GI50: > 100 µM
  TGI: > 100 µM
[8]
  GI50: > 100 µM
  TGI: > 100 µM
[9]
  GI50: > 100 µM
  TGI: > 100 µM

## C[N+](C)(C)c1cc[c]([Sn]([c]2ccc([N+](C)(C)C)cc2)([c]2ccc([N+](C)(C)C)cc2)[c]2ccc([N+](C)(C)C)cc2)cc1
[1]
  GI50: > 100 µM
  TGI: > 100 µM
[2]
  GI50: > 100 µM
  TGI: > 100 µM
[3]
  GI50: > 100 µM
  TGI: > 100 µM
[5]
  GI50: > 100 µM
  TGI: > 100 µM
[7]
  GI50: > 100 µM
  TGI: > 100 µM
[8]
  GI50: > 100 µM
  TGI: > 100 µM
[9]
  GI50: > 100 µM
  TGI: > 100 µM
[10]
  GI50: > 100 µM
  TGI: > 100 µM

## CC1=CP(=O)(c2ccccc2)C=C(C)C1=C(Cl)Cl (stereo unspecified)
[1]
  TGI: 16.5 µM
[2]
  TGI: 72.3 µM
[3]
  TGI: 31.2 µM
[5]
  TGI: 43.3 µM
[8]
  TGI: 14.9 µM
[9]
  TGI: 30.9 µM

## COc1cc(/C=C(\NC(=O)c2ccccc2)c2nc3ncncc3[nH]2)cc(OC)c1OC
[1]
  TGI: > 100 µM
[2]
  TGI: > 100 µM
[3]
  TGI: > 100 µM
[5]
  TGI: > 100 µM
[7]
  TGI: > 100 µM
[8]
  TGI: > 100 µM
[9]
  TGI: > 100 µM
[10]
  TGI: > 100 µM

## CCOC(=N)CC(=O)Nc1ccccc1
[1]
  TGI: > 46.4 µM
[2]
  TGI: > 100 µM
[3]
  TGI: > 46.4 µM
[5]
  TGI: > 46.4 µM
[7]
  TGI: > 46.4 µM
[8]
  TGI: > 46.4 µM
[9]
  TGI: > 31.6 µM
[10]
  TGI: > 69.1 µM

## COc1ccccc1/C=C\C(=O)C1COCN1 (stereo unspecified)
[1]
  TGI: 75.5 µM
[2]
  TGI: 30.1 µM
[3]
  TGI: 25.1 µM
[5]
  TGI: 50.8 µM
[6]
  TGI: 35.6 µM
[7]
  TGI: 44 µM
[8]
  TGI: 24.6 µM
[9]
  TGI: 34.2 µM

## Cc1ccc(N=C2N=C(N3CC(C)OC(C)C3)c3ccccc32)cc1 (stereo unspecified)
[1]
  TGI: > 100 µM
[3]
  TGI: 48.5 µM
[5]
  TGI: > 100 µM
[7]
  TGI: 54.2 µM
[8]
  TGI: 62.5 µM
[9]
  TGI: 73.4 µM

## CCc1cc2c(O)c(c1)Cc1cc(CC)cc(c1O)Cc1cc(CC)cc(c1O)Cc1cc(CC)cc(c1O)Cc1cc(CC)cc(c1O)Cc1cc(CC)cc(c1O)Cc1cc(CC)cc(c1O)C2
[1]
  TGI: > 100 µM
[3]
  TGI: > 100 µM
[5]
  TGI: > 100 µM
[7]
  TGI: > 100 µM
[8]
  TGI: > 100 µM
[9]
  TGI: > 100 µM

## COc1ccc(/C=C/C(=O)c2c(-c3ccccc3)nn(C)c(=O)c2N2CCOCC2)cc1
[1]
  TGI: > 100 µM
[2]
  TGI: > 100 µM
[3]
  TGI: > 100 µM
[5]
  TGI: > 100 µM
[7]
  TGI: > 100 µM

## O=C(N=c1nc(NC(=O)c2ccccc2)ss1)c1ccccc1
[1]
  TGI: > 100 µM
[2]
  TGI: 68.9 µM
[3]
  TGI: 34.7 µM
[5]
  TGI: > 100 µM
[7]
  TGI: 62.8 µM
[8]
  TGI: > 100 µM
[9]
  TGI: 55.7 µM
[10]
  TGI: 75.4 µM

## O=C(Nc1ccc(Cl)cc1C(=O)O)c1ccc([N+](=O)[O-])cc1
[1]
  TGI: 34.1 µM
[2]
  TGI: 56.5 µM
[3]
  TGI: 48.7 µM
[5]
  TGI: 86.4 µM
[7]
  TGI: 44.1 µM
[8]
  TGI: 36.2 µM
[9]
  TGI: 56.6 µM

## C#CC1(O)C(COP(=O)(O)OCC2OC(n3cc(F)c(=O)[nH]c3=O)CC2O)OC(n2ccc(N)nc2=O)C1O (stereo unspecified)
[1]
  GI50: < 0.01 µM
  TGI: > 100 µM
[2]
  GI50: > 100 µM
  TGI: > 100 µM
[3]
  GI50: < 0.01 µM
  TGI: 0.0412 µM
[4]
  GI50: < 0.019 µM
  TGI: 2.52 µM
[5]
  GI50: 0.01 µM
[6]
  GI50: < 0.01 µM
  TGI: > 100 µM
[7]
  GI50: < 0.01 µM
  TGI: > 100 µM
[8]
  GI50: < 0.01 µM
  TGI: > 23.8 µM
[9]
  GI50: < 0.01 µM
  TGI: 0.746 µM

## COc1ccc(O)cc1C(O)c1ccccc1 (stereo unspecified)
[1]
  TGI: > 100 µM
[2]
  TGI: > 100 µM
[3]
  TGI: > 100 µM
[5]
  TGI: > 100 µM
[7]
  TGI: > 100 µM
[8]
  TGI: > 100 µM
[9]
  TGI: > 100 µM

## Cc1ccc(/C=C/C(=O)c2sc(-n3nc(-c4ccccc4)cc3-c3ccccc3)nc2C)cc1
[1]
  TGI: > 100 µM
[2]
  TGI: > 100 µM
[3]
  TGI: > 100 µM
[5]
  TGI: > 100 µM
[7]
  TGI: > 100 µM
[8]
  TGI: > 100 µM
[9]
  TGI: > 100 µM

— PubChem BioAssay (NCI)
